Experimental data as given in US20260335294A1, “TREATING CONGENITAL DISORDERS OF GLYCOSYLATION” (Mayo Foundation for Medical Education and Research, priority 2022, published 2026).

Tests used:
[1] = tested on: PMM2-CDG patients; assay: Clinical observation of lower body strength and speech; assay type: in vivo, human; conditions: P7
Procedure: Two patients were started on epalrestat on single patient investigational new drug (IND) (P5 IRB: 19-010017; IND #145262; P6 Protocol PMM2-CDG-001/A). Epalrestat was initiated on the parents' own initiative in the third patient (P7). Two patients were in their second year of epalrestat treatment, while the third, was in the 3rd year of treatment. Physical, neurological, and biochemical examinations were performed in 3 PMM2-CDG patients at baseline, and at every three months after the start of the epalrestat treatment. Patients underwent NPCRS phenotype severity assessment and biological sampling at every visit. Epalrestat (Ono Pharmaceuticals, Osaka, Japan) was taken orally 3 times per day (TID) before meals in a divided dose, with dosage escalation throughout the treatment. The pharmacological profile of epalrestat was as described elsewhere (Ligezka et al, Ann. Neurol., 90(6):887-900 (2021)). The starting dosage in P5 and P6 was 0.8 mg/kg/day, while P7 was started on 0.5 mg/kg/day due to their young age. P7 dosage was increased to 0.8 mg/day after a month, once safety was established. […] Quantification of goal attainment levels is done on a 5-point scale ranging from −2 to +2, with 0 indicating the expected level of goal attainment. Three individual goals were established by each patient (parent) at baseline and the progress was annually assessed. […]

[2] = tested on: PMM2-CDG patients; assay: Goal attainment scale (GAS) in patients on epalrestat; assay type: in vivo, human
Procedure: Two patients were started on epalrestat on single patient investigational new drug (IND) (P5 IRB: 19-010017; IND #145262; P6 Protocol PMM2-CDG-001/A). Epalrestat was initiated on the parents' own initiative in the third patient (P7). Two patients were in their second year of epalrestat treatment, while the third, was in the 3rd year of treatment. Physical, neurological, and biochemical examinations were performed in 3 PMM2-CDG patients at baseline, and at every three months after the start of the epalrestat treatment. Patients underwent NPCRS phenotype severity assessment and biological sampling at every visit. Epalrestat (Ono Pharmaceuticals, Osaka, Japan) was taken orally 3 times per day (TID) before meals in a divided dose, with dosage escalation throughout the treatment. The pharmacological profile of epalrestat was as described elsewhere (Ligezka et al, Ann. Neurol., 90(6):887-900 (2021)). The starting dosage in P5 and P6 was 0.8 mg/kg/day, while P7 was started on 0.5 mg/kg/day due to their young age. P7 dosage was increased to 0.8 mg/day after a month, once safety was established. Blood and urine samples were collected routinely. Urine polyols, carbohydrate deficient transferrin (CDT), anti-thrombin III (ATIII), liver enzymes (ALT, AST), and complete blood count (CBC) were performed. Modified Brief Ataxia Rating Scale was used to assess ataxia in the 2 patients (P5, P6; P7 was not eligible for the test due to age). The modified BARS scale included Archimedes spiral test, but not the abnormalities of the ocular pursuit system and the scale range was 0-54. Goal attainment scale (GAS) was administered as described per study protocol (ClinicalTrials.gov Identifier: NCT04199000). Quantification of goal attainment levels is done on a 5-point scale ranging from −2 to +2, with 0 indicating the expected level of goal attainment. Three individual goals were established by each patient (parent) at baseline and the progress was annually assessed. Goals included: walking without assistance (Goal #1 P5, P6), communicating with strangers (Goal #2 P5, P6), independent toilet training (Goal #3 P5), to be able to have a healthy and independent life (Goal #3 P6), to be able to equally play with peers (Goal #1 P7), normalization of laboratory results (liver enzymes) (Goal #2 P7), and improved balance to stand and walk (Goal #3 P7).

For `CC(/C=C1\SC(=S)N(CC(=O)O)C1=O)=C\c1ccccc1` [epalrestat], the “lower body strength and speech” value [1] was “improvement in lower body strength and speech”, the “Goal attainment scale, Goal 2 (scale −2 to +2)” value ([2]; P5, 12 months, 1.5 mg/kg day, communicating with strangers, baseline −2) was −1 and the “Goal attainment scale, Goal 3 (scale −2 to +2)” value ([2]; P5, 12 months, 1.5 mg/kg day, independent toilet training, baseline −2) was −2. For the same molecule, the “Goal attainment scale, Goal 1 (scale −2 to +2)” value ([2]; P5, 12 months, 1.5 mg/kg day, walking without assistance, baseline −2) was −1, the “Goal attainment scale, Goal 2 (scale −2 to +2)” value ([2]; P5, 24 months, 2 mg/kg day, communicating with strangers, baseline −2) was −1 and the “Goal attainment scale, Goal 3 (scale −2 to +2)” value ([2]; P5, 24 months, 2 mg/kg day, independent toilet training, baseline −2) was −2. The “Goal attainment scale, Goal 1 (scale −2 to +2)” value ([2]; P5, 24 months, 2 mg/kg day, walking without assistance, baseline −2) was −1, the “Goal attainment scale, Goal 2 (scale −2 to +2)” value ([2]; P6, 12 months, 1.5 mg/kg day, communicating with strangers, baseline −1) was −1 and the “Goal attainment scale, Goal 3 (scale −2 to +2)” value ([2]; P6, 12 months, 1.5 mg/kg day, healthy and independent life, baseline −2) was −2. For the same molecule, the “Goal attainment scale, Goal 1 (scale −2 to +2)” value ([2]; P6, 12 months, 1.5 mg/kg day, walking without assistance, baseline −2) was −1, the “Goal attainment scale, Goal 1 (scale −2 to +2)” value ([2]; P7, 12 months, 1.5 mg/kg day, equally play with peers, baseline −2) was −2 and the “Goal attainment scale, Goal 3 (scale −2 to +2)” value ([2]; P7, 12 months, 1.5 mg/kg day, improved balance to stand and walk, baseline −2) was −1. The “Goal attainment scale, Goal 2 (scale −2 to +2)” value ([2]; P7, 12 months, 1.5 mg/kg day, normalization of laboratory results (liver enzymes), baseline −2) was −1 and the “clinical improvement and quality of life (GAS, self-reported)” value ([2]; all patients, words) was “all patients self-reported clinical improvement and quality of life improvement”.
